Earlier results on one compound are cited in patent publication US7300792B2, “Lux expression in eukaryotic cells” (University of Tennessee Research Foundation, priority 2002, dated 2007).

The data set relates to lower eukaryotes. The settings on record: lower eukaryotes (yeast).

The structures appear in SMILES notation.

As to `CCCCCCCCCC=O` [n-decylaldehyde], the Toxicity entry is recorded as “toxic to lower eukaryotes”.
